Our source for the inhibition and IC50 values is ChEMBL document CHEMBL3864148, “Synthesis of linear and angular aryl-morpholino-naphth-oxazines, their DNA-PK, PI3K, PDE3A and antiplatelet activity” (Bioorg Med Chem Lett, 2016).

SMILES strings stand for the structures.

Experiment [1] deals with DNA-PK/Ku70/Ku85 (Homo sapiens) (UniProt P78527+P12956+P13010). The experiment can be described thus: Inhibition of human DNA-PK/Ku70/Ku85 at 10 uM using EPPLSQEAFADLWKK as substrate by HTRF assay relative to control. In general terms: In TR-FRET formats the signal depends on donor and acceptor labels being close together.
Experiment [2] addresses cGMP-inhibited 3',5'-cyclic phosphodiesterase 3A (Homo sapiens) (UniProt Q14432). As to the kind of experiment: Inhibition of PDE3A (unknown origin) at 10 uM relative to control.
For experiment [3], the target named is T1, Phosphatidylinositol 4,5-bisphosphate 3-kinase catalytic subunit alpha isoform (Homo sapiens, UniProt P42336). The experiment can be described thus: Inhibition of p110alpha (unknown origin) assessed as decrease in ATP consumption at 10 uM after 60 mins by Kinase-Glo assay relative to control. On the technique in general: In Kinase-Glo more light means more ATP remaining.
T1 sequence (P42336 whole entry, canonical isoform): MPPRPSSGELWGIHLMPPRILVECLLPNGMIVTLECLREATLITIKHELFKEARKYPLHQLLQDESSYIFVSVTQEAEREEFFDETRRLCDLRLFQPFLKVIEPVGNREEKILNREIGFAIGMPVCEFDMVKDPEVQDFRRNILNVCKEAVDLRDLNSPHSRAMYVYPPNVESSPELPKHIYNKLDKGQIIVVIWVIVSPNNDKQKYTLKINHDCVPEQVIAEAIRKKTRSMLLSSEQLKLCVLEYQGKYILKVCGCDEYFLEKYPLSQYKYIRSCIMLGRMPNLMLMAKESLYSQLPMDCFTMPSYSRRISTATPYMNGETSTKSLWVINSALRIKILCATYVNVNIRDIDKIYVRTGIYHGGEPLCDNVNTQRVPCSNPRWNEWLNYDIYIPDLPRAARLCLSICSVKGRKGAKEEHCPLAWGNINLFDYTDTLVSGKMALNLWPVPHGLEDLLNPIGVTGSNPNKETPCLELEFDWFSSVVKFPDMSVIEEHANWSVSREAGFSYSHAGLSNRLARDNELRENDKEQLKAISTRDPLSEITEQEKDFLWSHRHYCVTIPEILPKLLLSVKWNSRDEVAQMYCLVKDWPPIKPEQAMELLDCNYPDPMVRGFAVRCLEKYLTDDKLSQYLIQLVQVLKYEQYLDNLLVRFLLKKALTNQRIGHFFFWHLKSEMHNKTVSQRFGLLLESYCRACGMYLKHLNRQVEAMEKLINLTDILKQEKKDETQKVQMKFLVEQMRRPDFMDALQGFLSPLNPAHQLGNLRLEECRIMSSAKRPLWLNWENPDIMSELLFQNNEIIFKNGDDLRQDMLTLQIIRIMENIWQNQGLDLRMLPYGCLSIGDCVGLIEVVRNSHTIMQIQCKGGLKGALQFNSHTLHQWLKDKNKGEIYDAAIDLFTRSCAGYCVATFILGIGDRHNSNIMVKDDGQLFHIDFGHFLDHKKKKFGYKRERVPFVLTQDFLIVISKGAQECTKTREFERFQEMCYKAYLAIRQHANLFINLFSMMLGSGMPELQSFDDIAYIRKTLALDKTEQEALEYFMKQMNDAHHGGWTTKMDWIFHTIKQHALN

The target of experiment [4] is T2, Phosphatidylinositol 4,5-bisphosphate 3-kinase catalytic subunit gamma isoform (Homo sapiens, UniProt P48736). As to the kind of experiment: Inhibition of p110gamma (unknown origin) assessed as decrease in ATP consumption at 10 uM after 60 mins by Kinase-Glo assay relative to control.
Target sequence in this assay (P48736 whole entry, looked up, canonical isoform): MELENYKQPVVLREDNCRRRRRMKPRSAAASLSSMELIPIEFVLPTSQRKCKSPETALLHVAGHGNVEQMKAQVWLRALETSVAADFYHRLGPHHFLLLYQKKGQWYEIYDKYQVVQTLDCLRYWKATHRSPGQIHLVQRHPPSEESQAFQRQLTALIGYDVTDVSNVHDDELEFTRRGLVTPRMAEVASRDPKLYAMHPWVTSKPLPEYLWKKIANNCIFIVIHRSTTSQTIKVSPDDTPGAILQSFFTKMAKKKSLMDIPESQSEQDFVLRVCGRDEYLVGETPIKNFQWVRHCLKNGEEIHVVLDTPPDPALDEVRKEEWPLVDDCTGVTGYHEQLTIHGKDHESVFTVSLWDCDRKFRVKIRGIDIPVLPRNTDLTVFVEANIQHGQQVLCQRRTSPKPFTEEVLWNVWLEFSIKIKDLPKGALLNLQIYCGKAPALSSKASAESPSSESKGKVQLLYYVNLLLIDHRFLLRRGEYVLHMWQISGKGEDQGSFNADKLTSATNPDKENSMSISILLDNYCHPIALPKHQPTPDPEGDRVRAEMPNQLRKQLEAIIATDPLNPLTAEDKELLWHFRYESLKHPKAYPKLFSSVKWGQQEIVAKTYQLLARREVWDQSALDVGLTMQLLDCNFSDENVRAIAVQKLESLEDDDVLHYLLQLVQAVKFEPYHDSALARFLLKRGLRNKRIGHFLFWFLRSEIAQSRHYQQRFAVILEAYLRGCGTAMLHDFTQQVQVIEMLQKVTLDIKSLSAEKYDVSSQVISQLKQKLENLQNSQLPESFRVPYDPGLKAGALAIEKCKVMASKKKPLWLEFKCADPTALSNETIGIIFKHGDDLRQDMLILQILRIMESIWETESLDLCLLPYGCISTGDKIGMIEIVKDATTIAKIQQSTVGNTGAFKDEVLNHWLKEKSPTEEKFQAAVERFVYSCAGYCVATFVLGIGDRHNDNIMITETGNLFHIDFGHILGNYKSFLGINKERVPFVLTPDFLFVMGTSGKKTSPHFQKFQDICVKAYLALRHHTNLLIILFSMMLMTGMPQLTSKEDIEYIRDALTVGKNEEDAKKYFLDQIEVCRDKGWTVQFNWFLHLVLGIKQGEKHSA
A short description of experiment [5]: Antiplatelet activity in human platelet rich plasma assessed as inhibition of collagen-induced platelet aggregation preincubated for 2 mins followed by collagen addition by two-channel platelet aggregometer. In kind it is functional.
The target of experiment [6] is T3, Phosphatidylinositol 4,5-bisphosphate 3-kinase catalytic subunit delta isoform (Homo sapiens) (UniProt O00329).
T3 sequence (whole entry): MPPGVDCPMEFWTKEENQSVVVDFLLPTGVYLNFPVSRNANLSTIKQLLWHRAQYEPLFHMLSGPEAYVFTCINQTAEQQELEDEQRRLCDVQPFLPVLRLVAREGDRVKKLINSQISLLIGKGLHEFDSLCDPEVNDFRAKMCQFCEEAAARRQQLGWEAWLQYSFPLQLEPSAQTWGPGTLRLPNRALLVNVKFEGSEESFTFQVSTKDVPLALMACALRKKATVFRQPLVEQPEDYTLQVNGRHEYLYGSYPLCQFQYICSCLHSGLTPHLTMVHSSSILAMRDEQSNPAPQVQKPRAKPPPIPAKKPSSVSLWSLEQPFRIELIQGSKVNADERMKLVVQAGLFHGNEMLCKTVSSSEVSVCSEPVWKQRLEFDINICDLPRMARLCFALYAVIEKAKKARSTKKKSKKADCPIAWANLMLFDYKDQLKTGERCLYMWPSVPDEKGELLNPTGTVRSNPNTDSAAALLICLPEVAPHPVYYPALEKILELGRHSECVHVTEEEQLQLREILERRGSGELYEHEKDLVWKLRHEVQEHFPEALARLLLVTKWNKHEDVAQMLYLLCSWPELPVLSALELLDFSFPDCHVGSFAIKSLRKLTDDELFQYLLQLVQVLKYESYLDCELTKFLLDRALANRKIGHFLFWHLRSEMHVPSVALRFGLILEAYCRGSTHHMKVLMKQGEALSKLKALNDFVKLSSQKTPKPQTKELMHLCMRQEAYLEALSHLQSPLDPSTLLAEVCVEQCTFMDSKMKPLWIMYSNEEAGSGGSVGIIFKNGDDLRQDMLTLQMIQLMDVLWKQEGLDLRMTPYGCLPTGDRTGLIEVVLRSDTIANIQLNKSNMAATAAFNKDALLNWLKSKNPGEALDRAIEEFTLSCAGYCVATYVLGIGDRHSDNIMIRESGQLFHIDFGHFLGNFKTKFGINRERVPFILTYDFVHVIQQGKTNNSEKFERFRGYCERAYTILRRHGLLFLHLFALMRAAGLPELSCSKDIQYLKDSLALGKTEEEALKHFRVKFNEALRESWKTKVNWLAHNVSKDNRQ
The experiment can be described thus: Inhibition of p110delta (unknown origin) assessed as decrease in ATP consumption at 10 uM after 60 mins by Kinase-Glo assay relative to control.

Experiment [7] has as its target T4, Phosphatidylinositol 4,5-bisphosphate 3-kinase catalytic subunit beta isoform (Homo sapiens, UniProt P42338). As to the kind of experiment: Inhibition of p110beta (unknown origin) assessed as decrease in ATP consumption at 10 uM after 60 mins by Kinase-Glo assay relative to control.
Target sequence in this assay (P42338 whole entry, looked up, canonical isoform): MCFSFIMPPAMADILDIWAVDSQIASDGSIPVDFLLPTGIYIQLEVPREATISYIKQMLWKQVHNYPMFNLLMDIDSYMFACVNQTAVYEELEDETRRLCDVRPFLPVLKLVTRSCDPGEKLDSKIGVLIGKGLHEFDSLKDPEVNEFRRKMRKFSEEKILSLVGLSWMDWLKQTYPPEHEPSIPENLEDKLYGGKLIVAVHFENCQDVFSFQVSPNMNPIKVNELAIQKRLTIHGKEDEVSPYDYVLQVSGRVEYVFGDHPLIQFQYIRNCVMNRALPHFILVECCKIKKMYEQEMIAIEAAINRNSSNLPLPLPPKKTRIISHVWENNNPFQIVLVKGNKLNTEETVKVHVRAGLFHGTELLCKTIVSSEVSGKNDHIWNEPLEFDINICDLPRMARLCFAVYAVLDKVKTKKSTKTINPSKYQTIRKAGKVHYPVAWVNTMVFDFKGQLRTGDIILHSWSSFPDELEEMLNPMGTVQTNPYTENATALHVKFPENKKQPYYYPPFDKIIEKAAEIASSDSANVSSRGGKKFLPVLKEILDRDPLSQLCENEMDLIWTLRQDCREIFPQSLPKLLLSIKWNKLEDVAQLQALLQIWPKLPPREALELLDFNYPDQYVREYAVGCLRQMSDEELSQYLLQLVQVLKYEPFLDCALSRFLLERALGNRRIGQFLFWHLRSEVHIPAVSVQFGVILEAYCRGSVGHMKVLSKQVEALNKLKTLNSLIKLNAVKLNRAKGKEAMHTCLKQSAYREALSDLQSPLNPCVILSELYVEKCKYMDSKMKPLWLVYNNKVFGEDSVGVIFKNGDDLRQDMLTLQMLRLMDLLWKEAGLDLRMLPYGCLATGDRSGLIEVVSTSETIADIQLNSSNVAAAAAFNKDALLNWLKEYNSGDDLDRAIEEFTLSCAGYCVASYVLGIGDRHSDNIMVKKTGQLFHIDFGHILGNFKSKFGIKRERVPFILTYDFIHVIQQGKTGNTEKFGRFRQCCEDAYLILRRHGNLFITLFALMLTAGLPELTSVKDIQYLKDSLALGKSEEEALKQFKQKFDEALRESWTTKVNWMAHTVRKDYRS
Experiment [8] addresses T4, Phosphatidylinositol 4,5-bisphosphate 3-kinase catalytic subunit beta isoform. As to the kind of experiment: Inhibition of p110beta (unknown origin) assessed as decrease in ATP consumption after 60 mins by Kinase-Glo assay.
Target sequence in this assay (P42338 whole entry, canonical isoform): as the sequence (P42338 whole entry, looked up, canonical isoform) above
Experiment [9] concerns the target DNA-PK/Ku70/Ku85 (Homo sapiens, UniProt P12956+P13010+P78527). The experiment can be described thus: Inhibition of human DNA-PK/Ku70/Ku85 using EPPLSQEAFADLWKK as substrate by HTRF assay relative to control.
In experiment [10] the target is T5, Phosphatidylinositol 4,5-bisphosphate 3-kinase catalytic subunit delta isoform (Homo sapiens, UniProt O00329).
T5 sequence (O00329 whole entry): T3 sequence (whole entry)
The experiment can be described thus: Inhibition of p110delta (unknown origin) assessed as decrease in ATP consumption after 60 mins by Kinase-Glo assay.

Experiment [11] deals with T1, Phosphatidylinositol 4,5-bisphosphate 3-kinase catalytic subunit alpha isoform. The experiment can be described thus: Inhibition of p110alpha (unknown origin) assessed as decrease in ATP consumption after 60 mins by Kinase-Glo assay.
Experiment [12] deals with T2, Phosphatidylinositol 4,5-bisphosphate 3-kinase catalytic subunit gamma isoform. As to the kind of experiment: Inhibition of p110gamma (unknown origin) assessed as decrease in ATP consumption after 60 mins by Kinase-Glo assay.
Target sequence in this assay (P48736 whole entry, canonical isoform): as the sequence (P48736 whole entry, looked up, canonical isoform) above

Sequence of cGMP-inhibited 3',5'-cyclic phosphodiesterase 3A (Homo sapiens) (Q14432 whole entry, canonical isoform): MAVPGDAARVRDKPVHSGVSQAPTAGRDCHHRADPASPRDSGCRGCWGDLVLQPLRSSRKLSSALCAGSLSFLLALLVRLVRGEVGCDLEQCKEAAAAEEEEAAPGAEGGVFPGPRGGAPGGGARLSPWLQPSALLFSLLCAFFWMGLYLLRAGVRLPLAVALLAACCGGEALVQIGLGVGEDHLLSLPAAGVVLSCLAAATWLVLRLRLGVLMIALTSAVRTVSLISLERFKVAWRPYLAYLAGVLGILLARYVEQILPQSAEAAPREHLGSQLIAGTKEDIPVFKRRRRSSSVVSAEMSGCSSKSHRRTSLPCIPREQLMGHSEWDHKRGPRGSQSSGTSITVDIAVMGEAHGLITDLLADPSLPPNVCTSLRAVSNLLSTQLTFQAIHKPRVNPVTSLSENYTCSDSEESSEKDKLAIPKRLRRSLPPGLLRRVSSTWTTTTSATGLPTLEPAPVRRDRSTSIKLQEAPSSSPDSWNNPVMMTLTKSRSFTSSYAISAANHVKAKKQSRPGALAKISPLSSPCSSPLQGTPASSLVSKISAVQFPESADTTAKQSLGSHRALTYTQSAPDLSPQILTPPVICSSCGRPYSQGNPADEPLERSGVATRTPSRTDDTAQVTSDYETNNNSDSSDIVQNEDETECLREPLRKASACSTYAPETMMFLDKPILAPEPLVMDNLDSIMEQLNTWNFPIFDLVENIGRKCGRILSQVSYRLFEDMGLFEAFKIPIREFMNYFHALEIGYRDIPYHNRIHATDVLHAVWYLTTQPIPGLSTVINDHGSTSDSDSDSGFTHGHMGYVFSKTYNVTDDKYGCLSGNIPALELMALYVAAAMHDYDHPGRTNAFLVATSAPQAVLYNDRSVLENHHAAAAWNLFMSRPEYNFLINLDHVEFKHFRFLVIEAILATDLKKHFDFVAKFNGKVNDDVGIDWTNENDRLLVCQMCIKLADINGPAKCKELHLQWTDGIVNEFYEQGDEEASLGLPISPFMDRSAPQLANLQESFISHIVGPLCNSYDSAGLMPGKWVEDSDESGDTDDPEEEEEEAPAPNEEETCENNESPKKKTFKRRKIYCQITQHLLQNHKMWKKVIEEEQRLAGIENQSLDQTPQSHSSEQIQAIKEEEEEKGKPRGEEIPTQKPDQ

The inhibition is the relative decrease from the control value, in per cent. `O=c1nc(N2CCOCC2)oc2c1cc(-c1ccsc1)c1ccccc12`: the inhibition in experiment [1] and in experiment [2] was 22% in each case.

One may read the IC50 as the concentration that inhibits the measured activity by half. As to `O=c1nc(N2CCOCC2)oc2c1cc(-c1cccc3c1sc1ccccc13)c1ccccc12`, the inhibition in experiment [3] came to 23%; in experiment [4], 12%; in experiment [6], 0%; in [1] it was 0%; in experiment [7], 11%; in experiment [2], 30%. For the same molecule, the IC50 in experiment [5] turned out to be 5 µM.

Take `O=c1nc(N2CCOCC2)oc2ccc3cc(-c4cccc5c4sc4ccccc45)ccc3c12`: the inhibition is 0% in experiment [1] and 5% in experiment [2].

For `NC(=O)c1ccc(-c2cc3c(=O)nc(N4CCOCC4)oc3c3ccccc23)cc1`, the inhibition in experiment [1] amounted to 10%; in experiment [2] it was 7%.

As to `Nc1cccc(-c2cc3c(=O)nc(N4CCOCC4)oc3c3ccccc23)c1`, the inhibition in experiment [2] is -3%.

On to `O=c1nc(N2CCOCC2)oc2cc3ccccc3cc12`, for which the inhibition in experiment [6] was -10%.

As to `O=c1nc(N2CCOCC2)oc2c1cc(-c1ccc(Cl)cc1)c1ccccc12`, the inhibition in [1] came to 11%; in experiment [2], 1%.

As for `COc1ccc(-c2c3ccccc3cc3c(=O)nc(N4CCOCC4)oc23)cc1`, the half-inhibitory concentration (IC50) in [5] was > 80 µM; in experiment [8], > 50 µM; in [9], 11.9 µM; in experiment [10] it was 5.6 µM; in [11], > 50 µM; in [12], > 50 µM. Further, in [2], the inhibition stood at 6%.

For the molecule `O=c1nc(N2CCOCC2)oc2c1cc(-c1ccccc1)c1ccccc12`, the inhibition is 35% in experiment [3]; 34% in experiment [4]; 3% in [6]; 22% in experiment [1]; 10% in experiment [7]; 15% in experiment [2]. The 50% inhibitory concentration (IC50) in experiment [5] amounted to 3 µM.

As for `O=c1nc(N2CCOCC2)oc2ccc3cc(-c4ccccc4)ccc3c12`, the inhibition is -2% in experiment [3]; 1% in experiment [4]; -1% in experiment [6]; 0% in experiment [1]; -3% in experiment [7]; 13% in [2].

Turning to `O=c1nc(N2CCOCC2)oc2ccc3cc(-c4cccc5c4oc4ccccc45)ccc3c12`, the inhibition came to 0% in experiment [1] and 12% in experiment [2].

With `O=c1nc(N2CCOCC2)oc2ccc3ccccc3c12`, the inhibition amounted to 4% in [3], 2% in [4], 8% in experiment [6] and 23% in experiment [7]. Moreover, the IC50 in experiment [5] was > 80 µM; in experiment [9], 38.8 µM.

For the molecule `O=c1nc(N2CCOCC2)oc2c1cc(-c1cccc3ccccc13)c1ccccc12`, the inhibition was 10% in experiment [1] and 26% in experiment [2].

In the case of `COc1ccc(-c2cc3c(=O)nc(N4CCOCC4)oc3c3ccccc23)cc1`, the inhibition came out at 20% in experiment [3]; 17% in experiment [4]; 9% in experiment [6]; 19% in experiment [1]; 42% in [7]; 26% in [2]. Besides, the half-inhibitory concentration (IC50) in [5] worked out at 14 µM.

`O=c1nc(N2CCOCC2)oc2c(-c3ccccc3)c3ccccc3cc12`: the IC50 in [5] is > 80 µM; in experiment [8] it was > 50 µM; in [9] it was 78.1 µM; in experiment [10], 7.7 µM; in experiment [11] it was 43.8 µM; in experiment [12], > 50 µM. In [2], the inhibition was 32%.

For `O=c1nc(N2CCOCC2)oc2c1cc(-c1cccc3c1oc1ccccc13)c1ccccc12`, the inhibition was 9% in experiment [3]; 24% in [4]; 0% in experiment [6]; 24% in experiment [1]; 22% in [7]; 11% in experiment [2]. Further, in experiment [5], the IC50 amounted to 2 µM.

Take `O=c1nc(N2CCOCC2)oc2c(-c3ccc(Cl)cc3)c3ccccc3cc12`: the inhibition in experiment [3] was 8%; in experiment [4], 3%; in experiment [6], 52%; in experiment [7], 0%; in experiment [2], 24%. Besides, the IC50 was > 80 µM in [5] and > 100 µM in experiment [9].

With `O=c1nc(N2CCOCC2)oc2c1cc(-c1ccc(CO)cc1)c1ccccc12`, the inhibition in experiment [2] was determined as 35%.

`O=c1nc(N2CCOCC2)oc2c1cc(-c1cccs1)c1ccccc12`: the inhibition came to 34% in experiment [1] and 32% in [2].

As for `O=c1nc(N2CCOCC2)oc2c1ccc1ccccc12`, the inhibition worked out at 22% in experiment [3], 4% in experiment [4], 12% in [6] and 15% in experiment [7]. The IC50 in experiment [5] is > 80 µM; in experiment [9], 10 µM.

Regarding `COc1ccc(-c2ccc3c(ccc4oc(N5CCOCC5)nc(=O)c43)c2)cc1`, the inhibition in experiment [3] is 0%; in experiment [4], -2%; in experiment [6] it was 0%; in [7] it was 0%; in experiment [2], 18%.

`O=c1nc(N2CCOCC2)oc2ccc3cc(-c4ccc(Cl)cc4)ccc3c12`: the inhibition was -5% in [3]; 0% in experiment [4]; -1% in [6]; 8.1% in experiment [1]; -1% in experiment [7]; -4% in [2].

Take `O=c1nc(N2CCOCC2)oc2c1cc(/C=C/c1ccccc1)c1ccccc12`: the inhibition in [1] was 5.9%; in experiment [2], 18%.
